Key:
[1] = system: IL-6; assay: Mouse IL6 quantification assay, LPS-stimulated RAW 264.7 macrophages; assay type: cell-based; conditions: for inhibition at 10 µM: RAW264.7, 10 μM, LPS (100 ng/ml) added concurrently, 5 hours, RAW 264.7; for inhibition at 30 µM: RAW264.7, 30 μM, LPS-stimulated RAW 264.7 macrophages
Procedure: (§1) Cell lines: Abelson murine leukemia virus transformed macrophage cell line RAW 264.7 was purchased from ATCC and grown in complete DMEM-High Glucose medium supplemented with penicillin (100 U/mL), streptomycin (100 μg/mL), and 10% heat-inactivated FBS at 37° C. in a humidified incubator with 5% CO2.
(§2) Method: Cells were plated at 25000-40000 cells/well density in a 96-well plate. After a 3-hour incubation, macrophages were starved with DMEM plus 0.5% FBS overnight. The next day the small molecules to be tested were added to the cells in the final concentration of 30 μM (with 0.3% DMSO) 3 hours prior to LPS stimulation (100 ng/ml). After LPS stimulation cells were incubated at 37° C. for 16 h. Alternatively, compounds were also tested at 10 μM and LPS (100 ng/ml) was added concurrently and incubated 5 hours at 37° C. At the end of the incubation periods, culture medium was collected and production of LPS-induced TNF-α and IL-6 cytokine was measured using ELISA detection kits.
(§3) Sandwich ELISA: The ELISA Immunoassays Quantikine Mouse TNF-alpha (catalog number MTA00B) and IL6 (catalog number M6000B) were purchased from R&D Systems Inc., Minneapolis, MN. These 4.5 hours solid phase ELISAs were used to measure mouse TNF-α or IL-6 levels in macrophages culture supernatants. Assays were executed according to the manufacturer specifications.

[2] = system: TNF-α; assay: Mouse TNF alpha quantification assay, LPS-stimulated RAW 264.7 macrophages; assay type: cell-based; conditions: for inhibition at 10 µM: RAW264.7, 10 μM, LPS (100 ng/ml) added concurrently, 5 hours, RAW 264.7, read-out: TNFα % Inhibition; for inhibition at 30 µM: RAW264.7, 30 μM, LPS-stimulated RAW 264.7 macrophages
Procedure: as §1, §2, §3

[3] = system: AKT phosphorylation; assay: Western AKT cell-based phosphorylation assay, PANC-1; conditions: Homo sapiens
Summary of the method: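 PANC-1 cells, serum-starved overnight in 0.5% FBS, were treated with compound at 10 μM (0.3% DMSO) for 6 h at 37 °C and then stimulated with 1.5 ng/ml EGF for 15 min. Lysates (15–50 μg) were immunoblotted for phospho-Akt Ser473, with ECL detection.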

[4] = system: MAPK phosphorylation; assay: MAPK cell-based phosphorylation assay (ELISA or Western), PANC-1; conditions: Homo sapiens, 10 μM
Summary of the method: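 Serum-starved (0.5% FBS overnight) cells given compound at 10 μM or serial dilutions (0.3% DMSO) for 6 h at 37 °C, then 1.5 ng/mL EGF for 15 min. Phospho-MAPK read by fixed-cell ELISA (fluorescence, 595 nm) or by Western blot of lysates with anti-phospho-p44/42 (Thr202/Tyr204).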

[5] = 6 hours, EGF stimulation, PANC-1

SMILES	inhibition at 30 µM [1] [%]	inhibition at 30 µM [2] [%]	inhibition at 10 µM ([3]; PANC-1 (Table 4C)) [%]	inhibition at 10 µM ([4]; PANC-1 (Table 4C)) [%]	other results
CO[C@H]1CC[C@@H](Nc2nc(-c3nccn3C)nc3sc(-c4ccn(C)n4)c(C)c23)C1 [drawing 780]	–	–	–	–	inhibition at 10 µM [1]: 76 to 100%; inhibition at 10 µM [2]: 1 to 25%
COc1c(O)nc(-c2ccccn2)nc1Oc1ccc(C(=O)N(C)C)cc1 [drawing 744]	–	–	–	–	inhibition at 10 µM [1]: 1 to 25%; inhibition at 10 µM [2]: 1 to 25%
COC1CCN(c2nc(-c3nccn3C)nc3sc(Br)c(-c4ccccc4)c23)C1 (stereo not drawn) [drawing 716]	51 to 75	26 to 50	–	–	–
COC(=O)c1nc(-c2nccn2C)nc(O)c1O [drawing 743]	0	0	–	–	–
COC1CCN(c2nc(-c3nccn3C)nc3sc(-c4cccnc4)c(-c4ccccc4)c23)C1 (stereo not drawn) [drawing 704]	76 to 100	76 to 100	–	–	–
Oc1nc(-c2ncc3ccccn23)nc2c(-c3ccccn3)csc12 [drawing 673]	76 to 100	76 to 100	–	–	–
Oc1nc(-c2ncc3n2CCCC3)nc2c(-c3ccccn3)csc12 [drawing 665]	76 to 100	51 to 75	–	–	–
COCCNC(=O)c1sc2nc(-c3nccn3C)nc(N[C@H]3C[C@@H](OC)C3)c2c1-c1ccccc1 [drawing 786]	–	–	–	–	inhibition at 10 µM [1]: 26 to 50%; inhibition at 10 µM [2]: 0%
COc1ccc(Oc2nc(-c3ccccn3)nc(O)c2OC)cc1 [drawing 724]	76 to 100	1 to 25	–	–	–
Oc1nc(-c2ccccn2)nc(CN2CCc3ccccc3C2)c1O	0	0	–	–	–
Oc1nc(-c2cn3ccccc3n2)nc2c(-c3ccccn3)csc12 [drawing 666]	76 to 100	76 to 100	–	–	–
COc1c(O)nc(-c2ccccn2)nc1Oc1cccnc1 [drawing 722]	51 to 75	0	–	–	–
COC1CCN(c2nc(-c3nccn3C)nc3sc(-c4ccc(CO)cc4)c(-c4ccccc4)c23)C1 (stereo not drawn) [drawing 711]	76 to 100	76 to 100	–	–	–
COc1cc(-c2sc3nc(-c4nccn4C)nc(N4CCC(OC)C4)c3c2-c2ccccc2)ccn1 (stereo not drawn) [drawing 702]	76 to 100	76 to 100	–	–	–
COc1c(O)nc(-c2ccccn2)nc1Nc1ccccc1 [drawing 745]	–	–	–	–	inhibition at 10 µM [1]: 76 to 100%; inhibition at 10 µM [2]: 1 to 25%
CO[C@H]1CC[C@@H](Nc2nc(-c3ncc[nH]3)nc3sc(-c4ccn(C)n4)c(-c4ccccc4)c23)C1 [drawing 776]	–	–	–	–	inhibition at 10 µM [1]: 76 to 100%; inhibition at 10 µM [2]: 26 to 50%
COC1CCN(c2nc(-c3nccn3C)nc3sc(-c4ccnc(N(C)C)c4)c(-c4ccccc4)c23)C1 (stereo not drawn) [drawing 715]	76 to 100	76 to 100	–	–	–
Oc1nc(-c2cn(-c3ccccc3)cn2)nc2c(-c3ccccn3)csc12 [drawing 675]	76 to 100	0	–	–	–
COc1ccc(Cn2cnc(-c3nc(O)c4scc(-c5ccccn5)c4n3)c2)cc1 [drawing 676]	76 to 100	1 to 25	–	–	–
CCN(CC)C(=O)c1nc(-c2nccn2C)nc(O)c1O [drawing 738]	0	1 to 25	–	–	–
COc1nc(-c2ccccn2)nc2c(-c3ccccn3)csc12 [drawing 778]	–	–	–	–	inhibition at 10 µM [1]: 51 to 75%; inhibition at 10 µM [2]: 1 to 25%
COCCCN(C)c1nc(-c2nccn2C)nc2sc(-c3ccn(C)n3)c(-c3ccccc3)c12 [drawing 678]	1 to 25	51 to 75	–	–	–
O=C(c1nc(-c2ccccn2)nc(O)c1O)N1CCOCC1 [drawing 728]	0	1 to 25	–	–	–
Cn1ccc(-c2sc3nc(-c4nccn4C)nc(N[C@@H]4CC[C@H](O)C4)c3c2-c2ccccc2)n1 (racemic) [drawing 774]	–	–	–	–	inhibition at 10 µM [1]: 26 to 50%; inhibition at 10 µM [2]: 1 to 25%
CO[C@H]1CC[C@@H](Nc2nc(-c3nccn3C)nc(C(=O)N3CCc4c(O)cccc4C3)c2C)C1 [drawing 766]	–	–	–	–	inhibition at 10 µM [1]: 0%; inhibition at 10 µM [2]: 1 to 25%
COc1nc(-c2ccccn2)nc2c(-c3ccccn3)csc12 [drawing 513]	–	–	0	0	–

SMILES	inhibition at 30 µM [1] [%]	inhibition at 30 µM [2] [%]	inhibition at 10 µM ([3]; PANC-1 (Table 4C)) [%]	inhibition at 10 µM ([4]; PANC-1 (Table 4C)) [%]	other results
CO[C@H]1CC[C@@H](Nc2nc(-c3nccn3C)nc3sc(C(=O)N4CCOCC4)c(-c4ccccc4)c23)C1 [drawing 527]	–	–	0	0	–
COc1cccc(-c2sc3nc(-c4nccn4C)nc(N[C@@H]4CC[C@H](OC)C4)c3c2C)c1F [drawing 494]	–	–	0	76 to 100	–
Cn1ccc(-c2sc3nc(-c4nccn4C)nc(NC4CCOCC4)c3c2-c2ccccc2)n1 [drawing 404]	–	–	–	–	inhibition at 10 µM [3, 5]: 1 to 25%; inhibition at 10 µM [4, 5]: 1 to 25%
COC1CCN(c2nc(-c3nccn3C)nc3sc(-c4ccc(N)nc4C)c(-c4ccccc4)c23)C1 (stereo not drawn) [drawing 437]	–	–	–	–	inhibition at 10 µM [3, 5]: 0%; inhibition at 10 µM [4, 5]: 26 to 50%
CN(C)CCOCCNc1nc(-c2nccn2C)nc2sc(-c3ccn(C)n3)c(-c3ccccc3)c12 [drawing 507]	–	–	0	0	–
Cc1c(-c2ccn(C)n2)sc2nc(-c3nccn3C)nc(NCCCC(=O)N(C)C)c12 [drawing 517]	–	–	0	0	–
COc1cccc(-c2sc3nc(-c4nccn4C)nc(N[C@H]4C[C@@H](OC)C4)c3c2-c2ccccc2)c1F [drawing 491]	–	–	76 to 100	76 to 100	–
CO[C@H]1CC[C@@H](Nc2nc(-c3ncc[nH]3)nc3sc(-c4ccn(C)n4)c(-c4ccccc4)c23)C1 [drawing 511]	–	–	76 to 100	76 to 100	–
CO[C@H]1CC[C@@H](Nc2nc(-c3nccn3C)nc3sc(-c4ccn(C(C)C)n4)c(-c4ccccc4)c23)C1 [drawing 512]	–	–	76 to 100	76 to 100	–
COc1cccc(-c2sc3nc(-c4nccn4C)nc(N4CCC(OC)C4)c3c2-c2ccccc2)c1F (stereo not drawn) [drawing 490]	–	–	76 to 100	76 to 100	–
O=C(NC1CCCC1)c1nc(-c2ccccn2)nc(O)c1O [drawing 457]	–	–	–	–	inhibition at 10 µM [3, 5]: 0%; inhibition at 10 µM [4, 5]: 0%
COc1c(O)nc(-c2ccccn2)nc1Nc1ccccc1 [drawing 480]	–	–	0	0	–
COCCn1cc(Nc2nc(-c3ccccn3)nc(OC)c2OC)cn1 [drawing 470]	–	–	–	–	inhibition at 10 µM [3, 5]: 0%; inhibition at 10 µM [4, 5]: 0%
CO[C@H]1CC[C@@H](Nc2nc(-c3nccn3C)nc(C(=O)N3CCc4c(O)cccc4C3)c2C)C1 [drawing 501]	–	–	1 to 25	26 to 50	–
Cn1ccc(-c2sc3nc(-c4nccn4C)nc(O)c3c2-c2ccccc2)n1 [drawing 504]	–	–	0	0	–
O=C(NCc1ccccc1)c1nc(-c2ccccn2)nc(O)c1O [drawing 455]	–	–	–	–	inhibition at 10 µM [3, 5]: 0%; inhibition at 10 µM [4, 5]: 1 to 25%
COC1CCN(c2nc(-c3nccn3C)nc3sc(-c4cccnc4)c(-c4ccccc4)c23)C1 (stereo not drawn) [drawing 429]	–	–	–	–	inhibition at 10 µM [3, 5]: 0%; inhibition at 10 µM [4, 5]: 51 to 75%
COc1nc(-c2ccccn2)nc(Nc2cnn(C)c2)c1OC [drawing 469]	–	–	–	–	inhibition at 10 µM [3, 5]: 0%; inhibition at 10 µM [4, 5]: 0%
Cc1cnc(-c2nc(O)c3scc(-c4ccccn4)c3n2)n1C [drawing 394]	–	–	–	–	inhibition at 10 µM [3, 5]: 0%; inhibition at 10 µM [4, 5]: 0%
CO[C@H]1CC[C@@H](Nc2nc(-c3nccn3C)nc3sc(-c4cccc5[nH]ncc45)c(-c4ccccc4)c23)C1 [drawing 489]	–	–	0	76 to 100	–
CO[C@H]1C[C@H](Nc2nc(-c3nccn3C)nc3sc(-c4ccn(C)n4)c(-c4ccccc4)c23)C1 [drawing 506]	–	–	76 to 100	76 to 100	–
CO[C@H]1CC[C@@H](Nc2nc(-c3nccn3C)nc3sc(-c4ccn(C(C)C)n4)c(C)c23)C1 [drawing 519]	–	–	0	76 to 100	–
COC1CCN(c2nc(-c3nccn3C)nc3sc(-c4ccn(C)n4)c(-c4ccccc4)c23)CC1 [drawing 410]	–	–	–	–	inhibition at 10 µM [3, 5]: 0%; inhibition at 10 µM [4, 5]: 76 to 100%
Cc1c(-c2ccn(C)n2)sc2nc(-c3nccn3C)nc(NCCOC(=O)N(C)C)c12 [drawing 518]	–	–	0	0	–
COCC(C)Nc1nc(-c2nccn2C)nc2sc(-c3ccn(C)n3)c(-c3ccc(OC)cc3)c12 (stereo not drawn) [drawing 412]	–	–	–	–	inhibition at 10 µM [3, 5]: 0%; inhibition at 10 µM [4, 5]: 1 to 25%

From patent US20250296938A1, “Compounds that Interact with the Ras Superfamily for the Treatment of Cancers, Inflammatory Diseases, Rasopathies, and Fibrotic Disease” (SHY Therapeutics, LLC, priority 2018, published 2025)
